Test results reported in the OligoGym collection.
Oligonucleotides are written 5' to 3', each unit as a sugar letter and its base; * is a phosphorothioate linkage, no mark a phosphodiester; rarer units and linkages stand in square brackets, end groups in braces. Plain capitals give the bases only. d = 2'-deoxy (DNA); r = 2'-OH (RNA)

The substances below were run against UBE2L3 (assay: reporter assay of Huesken 2005). Conditions: siRNA.
Also: test concentration or dose not given here.

Row | Substance | normalised inhibition (eCFP-eYFP dual reporter)
1 | sense rCrGrGrGrCrUrGrArCrCrUrArGrCrUrGrArArGdTdT / antisense rCrUrUrCrArGrCrUrArGrGrUrCrArGrCrCrCrGdAdA | 61.3%
2 | sense rCrUrCrArUrArGrCrArCrUrGrGrUrGrArArUrGdTdT / antisense rCrArUrUrCrArCrCrArGrUrGrCrUrArUrGrArGdGdG | 77.1%
3 | sense rCrUrGrArGrCrArCrCrCrGrCrUrUrCrGrGrGrCdTdT / antisense rGrCrCrCrGrArArGrCrGrGrGrUrGrCrUrCrArGdGdC | 51.7%
4 | sense rCrUrGrUrCrUrGrCrCrArGrUrArArUrUrArGrUdTdT / antisense rArCrUrArArUrUrArCrUrGrGrCrArGrArCrArGdAdC | 52.5%
5 | sense rGrArCrCrUrArGrCrUrGrArArGrArArUrArCrUdTdT / antisense rArGrUrArUrUrCrUrUrCrArGrCrUrArGrGrUrCdAdG | 102%
6 | sense rGrCrArGrGrUrCrUrGrUrCrUrGrCrCrArGrUrAdTdT / antisense rUrArCrUrGrGrCrArGrArCrArGrArCrCrUrGrCdCdC | 52.7%
7 | sense rGrCrUrArArUrUrUrArUrUrGrArCrUrUrGrGrCdTdT / antisense rGrCrCrArArGrUrCrArArUrArArArUrUrArGrCdTdT | 46.2%
8 | sense rGrCrUrGrArCrCrUrArGrCrUrGrArArGrArArUdTdT / antisense rArUrUrCrUrUrCrArGrCrUrArGrGrUrCrArGrCdCdC | 70.1%
9 | sense rGrGrArArGrCrCrArGrCrArArCrCrArArArArCdTdT / antisense rGrUrUrUrUrGrGrUrUrGrCrUrGrGrCrUrUrCrCdAdG | 73%
10 | sense rGrGrCrArArGrGrGrCrUrUrArUrUrGrUrUrCrCdTdT / antisense rGrGrArArCrArArUrArArGrCrCrCrUrUrGrCrCdAdA | 79.4%
11 | sense rGrGrUrCrUrGrUrCrUrGrCrCrArGrUrArArUrUdTdT / antisense rArArUrUrArCrUrGrGrCrArGrArCrArGrArCrCdTdG | 74.3%
12 | sense rGrUrCrUrGrUrCrUrGrCrCrArGrUrArArUrUrAdTdT / antisense rUrArArUrUrArCrUrGrGrCrArGrArCrArGrArCdCdT | 91%
13 | sense rUrArCrCrCrArUrUrCrArArArCrCrArCrCrGrAdTdT / antisense rUrCrGrGrUrGrGrUrUrUrGrArArUrGrGrGrUrAdCdT | 71.8%
14 | sense rUrArUrCrArCrCrCrArArArCrArUrCrGrArCrGdTdT / antisense rCrGrUrCrGrArUrGrUrUrUrGrGrGrUrGrArUrAdGdA | 57%
15 | sense rUrArUrUrGrArCrUrUrGrGrCrArArGrGrGrCrUdTdT / antisense rArGrCrCrCrUrUrGrCrCrArArGrUrCrArArUrAdAdA | 75.3%
16 | sense rUrCrArUrArGrCrArCrUrGrGrUrGrArArUrGrAdTdT / antisense rUrCrArUrUrCrArCrCrArGrUrGrCrUrArUrGrAdGdG | 77.5%
17 | sense rUrCrCrArGrGrUrUrGrArUrGrArArGrCrUrArAdTdT / antisense rUrUrArGrCrUrUrCrArUrCrArArCrCrUrGrGrAdTdG | 112%
18 | sense rUrCrCrUrGrArCrArArCrCrCrUrCrCrArUrArUdTdT / antisense rArUrArUrGrGrArGrGrGrUrUrGrUrCrArGrGrAdAdC | 69.7%
19 | sense rUrGrArUrArArGrGrGrArGrCrCrUrUrCrArGrAdTdT / antisense rUrCrUrGrArArGrGrCrUrCrCrCrUrUrArUrCrAdTdA | 110%
20 | sense rUrGrUrCrUrGrCrCrArGrUrArArUrUrArGrUrGdTdT / antisense rCrArCrUrArArUrUrArCrUrGrGrCrArGrArCrAdGdA | 51.7%
21 | sense rUrUrCrArArArCrCrArCrCrGrArArGrArUrCrAdTdT / antisense rUrGrArUrCrUrUrCrGrGrUrGrGrUrUrUrGrArAdTdG | 65.9%
22 | sense rUrUrCrGrGrGrCrUrGrArCrCrUrArGrCrUrGrAdTdT / antisense rUrCrArGrCrUrArGrGrUrCrArGrCrCrCrGrArAdGdC | 49%
23 | sense rUrUrGrArCrUrUrGrGrCrArArGrGrGrCrUrUrAdTdT / antisense rUrArArGrCrCrCrUrUrGrCrCrArArGrUrCrArAdTdA | 61.9%

The substances below were run against UBE2J1 (assay: reporter assay of Huesken 2005). Conditions: siRNA.

Row | Substance | normalised inhibition (eCFP-eYFP dual reporter)
24 | sense rArCrArArArArGrGrArGrArGrGrGrArGrCrCrAdTdT / antisense rUrGrGrCrUrCrCrCrUrCrUrCrCrUrUrUrUrGrUdTdG | 41.7%
25 | sense rArCrArGrCrArUrUrArUrUrArGrCrCrArUrCrAdTdT / antisense rUrGrArUrGrGrCrUrArArUrArArUrGrCrUrGrUdCdC | 54.7%
26 | sense rArGrArArGrUrCrArArUrUrCrArUrCrUrGrGrAdTdT / antisense rUrCrCrArGrArUrGrArArUrUrGrArCrUrUrCrUdGdC | 79.6%
